According to patent US20260097111A1, “ETHER LIPIDS FOR HYPERACTIVATION OF MAMMALIAN DENDRITIC CELLS” (priority 2022, published 2026):

System: human moDC
Test: IL-1β ELISA, human moDC treated with R848, DGP, MCC950
Format: cell-based
Experimental: Monocyte Isolation, Storage, and Differentiation into moDC. Human leukapheresis blood products were freshly obtained from AllCells via same day or overnight shipping at 4° C. Miltenyi StraightFrom Leukopak CD14 MicroBead isolation kits were used according to manufacturer instructions to isolate CD14+ monocytes. Briefly, leukopaks ranging in quantity from 5×10^9 to 1×10^10 total nucleated cells were evenly aliquoted into 50 mL conical tubes. Cells were incubated with CD14 microbeads and then loaded on the MultiMACS using the program “Possel2”. After washing out the negative population, CD14+ cells were eluted from the columns and counted. An aliquot of monocytes was used to stain for purity of cells to ensure that isolated live cells were […] CD11c+CD14+ by flow cytometry. […] Vials were placed in CoolCell freezing containers and placed in a −80° C. freezer and stored no longer than 1 week. Frozen cells were transferred for long-term storage to the vapor phase of a liquid nitrogen freezer until use.
To differentiate monocytes into moDC, vials of cells were taken out of the liquid nitrogen freezer and quickly thawed in a 37° C. water bath. Cells were diluted ten-fold in warmed R10++ media containing 50 units/mL benzonase. R10++ media was composed of RPMI 1640 media containing 10% fetal bovine serum, 50 units/mL penicillin, […] streptomycin, 2 mM L-glutamine, 1 mM sodium pyruvate, […] beta-mercaptoethanol, 10 mM HEPES, and 1% Gibco MEM non-essential amino acids. After gentle mixing by inversion of tubes, cells were incubated at 37° C. for 10 min. Cells were pelleted at 400×g for 5 min and supernatant was aspirated. Cells were resuspended in R10++ media and counted on the MoxiGo by diluting an aliquot in PBS containing a final concentration of 2.5 μg/mL propidium iodide. Cells were plated in T75 culture flasks at 3-6×10^7 cells per flask in a total of 20 mL R10++ media containing a final concentration of 50 ng/mL GM-CSF and 25 ng/mL IL-4. Three days after the start of culture, an additional 10 mL R10++ containing 50 ng/mL GM-CSF and 25 ng/mL IL-4 was added to each flask.
Six days after start of differentiation. R10++ media containing cells were placed into 50 mL conical tubes. Flasks were washed with an additional 10 mL PBS and also collected. […] Cells were resuspended in R10++ media and counted on the MoxiGo by diluting an aliquot in PBS containing a final concentration of 2.5 μg/mL propidium iodide. Cells were then adjusted to 1×10^6 cells/mL in R10++ media.
moDC Treatment. Human moDC were plated at 1×10^5 cells/well in 96-well flat-bottom tissue culture plates in R10++ media by adding 100 μL of cells per well. To each well, a 25 μL solution of R10++ containing 400 ng/mL GM-CSF and 200 ng/mL IL-4 was added.
Lyophilized R848 stocks were prepared as described above and frozen at −80° C. An aliquot of frozen R848 was thawed and further diluted to 11.4 μM in R10++ (4 μg/mL R848). Cell culture conditions receiving R848 treatment had 50 μL added to wells. For wells not receiving R848, 50 μL R10++ was added to wells. Lyophilized MCC950 was prepared as described above and stored at −20° C. MCC950 was further diluted to 40 uM in a prepared R10++ solution containing 11.4 μM R848. Cells receiving R848 and MCC950 treatment had 50 μL added to wells. Final concentrations of R848 and MCC950 in a total 200 μL volume were respectively 2.85 μM and 10 μM.
A4.44% solution of KP407 dissolved in sterile, distilled water was prepared at a temperature of 4° C. […]

CCCCCCCCCCCCCCCCCCCCCCOC[C@@H](O)COP(=O)(O)O [Compound 2, 1-docosyl-sn-glycerol-3-phosphate]
concentration of DGP sufficient in combination with R848 to significantly increase IL-1β secretion (donor HD94): 20.6 µM
concentration of DGP sufficient in combination with R848 to significantly increase IL-1β secretion (donor HD95): 82.5 µM
concentration of DGP sufficient in combination with R848 to significantly increase IL-1β secretion (donors HD93 and HD96): at least 41.3 uM
IL-1β (without addition of R848, DGP 0-82.5 μM, overnight, FIG. 21): less than 100 μg/mL
